# Laboratory results published in ChEMBL document CHEMBL1201862, “PubChem BioAssay data set” (2004).
#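 Five compound concentrations were applied to cells in 96-well plates for 48 hours; endpoints were derived by simple linear interpolation of the resulting dose-response curve. GI50 marks 50% less growth.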 Activity calls are given as the source filed them. Cut-off read from the data, not from the text of the source: active = GI50 up to about 1.1 µM and inactive = higher.
# Tests used:
# Experiment in all cases: NCI-60 cell line screen, 48 h
# OVCAR-5 = test system: OVCAR-5
# SNB-75 = test system: SNB-75
# RXF 393 = test system: RXF 393
# NCI-H23 = test system: NCI-H23
# MOLT-4 = test system: MOLT-4
# COLO 205 = test system: COLO 205
# T47D = test system: T47D
# SNB-19 = test system: SNB-19
# MDA-N = test system: MDA-N
# MDA-MB-231 = test system: MDA-MB-231
# M14 = test system: M14
# OVCAR-8 = test system: OVCAR-8
# SF-268 = test system: SF-268
# SK-MEL-2 = test system: SK-MEL-2
# HCT-116 = test system: HCT-116
# K562 = test system: K562
# DU-145 = test system: DU-145
# SF-539 = test system: SF-539
# LOX IMVI = test system: LOX IMVI
SMILES,GI50 (OVCAR-5),GI50 (SNB-75),GI50 (RXF 393),GI50 (NCI-H23),GI50 (MOLT-4),GI50 (COLO 205),GI50 (T47D),GI50 (SNB-19),GI50 (MDA-N),GI50 (MDA-MB-231),GI50 (M14),GI50 (OVCAR-8),GI50 (SF-268),GI50 (SK-MEL-2),GI50 (HCT-116),GI50 (K562),GI50 (DU-145),GI50 (SF-539),GI50 (LOX IMVI)
CC(=O)OCC1OC(c2c(OC(C)=O)cc(C)c3c(=O)cc(/C(C(C)=O)=C(\C)O)oc23)C(OC(C)=O)C(OC(C)=O)C1OC(C)=O (stereo not given),> 100 µM (inactive),49.5 µM (inactive),> 100 µM (inactive),> 100 µM (inactive),> 100 µM (inactive),> 100 µM (inactive),> 100 µM (inactive),> 100 µM (inactive),> 100 µM (inactive),> 100 µM (inactive),> 100 µM (inactive),> 100 µM (inactive),87.7 µM (inactive),> 100 µM (inactive),> 100 µM (inactive),> 100 µM (inactive),> 100 µM (inactive),> 100 µM (inactive),
COC(=O)C1=C(C)NC(CF)=C(C(=O)OC)C1c1cccc2c(=O)c3ccccc3oc12 (stereo not given),> 100 µM (inactive),8.41 µM (inactive),11.7 µM (inactive),36.8 µM (inactive),5.89 µM (inactive),4.39 µM (inactive),24.3 µM (inactive),,1.92 µM (inactive),4.74 µM (inactive),,19.9 µM (inactive),18.3 µM (inactive),20.4 µM (inactive),5.2 µM (inactive),4.06 µM (inactive),90.4 µM (inactive),24.3 µM (inactive),7.4 µM (inactive)
O=C1/C(=C/c2ccc(Cl)cc2)N=C(c2ccccc2)N1c1nc2ccccc2s1,> 100 µM (inactive),77.3 µM (inactive),> 100 µM (inactive),30.4 µM (inactive),0.548 µM (active),,46.8 µM (inactive),,39 µM (inactive),67.8 µM (inactive),69.8 µM (inactive),59.4 µM (inactive),38.4 µM (inactive),28.3 µM (inactive),40.7 µM (inactive),26.4 µM (inactive),78.2 µM (inactive),> 100 µM (inactive),43.6 µM (inactive)
C(=C\c1ccccc1)/C=N/c1ccc2c(c1)Cc1ccccc1-2,> 100 µM (inactive),38.6 µM (inactive),> 100 µM (inactive),36.1 µM (inactive),31 µM (inactive),,76.7 µM (inactive),61.4 µM (inactive),44 µM (inactive),65 µM (inactive),62.2 µM (inactive),57.9 µM (inactive),38.9 µM (inactive),57.1 µM (inactive),35.9 µM (inactive),34.2 µM (inactive),31.3 µM (inactive),,23.9 µM (inactive)
S=c1[nH]c(=S)c2cc(Sc3ccc4[nH]c(=S)[nH]c(=S)c4c3)ccc2[nH]1,> 100 µM (inactive),19.5 µM (inactive),23.7 µM (inactive),28 µM (inactive),46.8 µM (inactive),26.9 µM (inactive),50.5 µM (inactive),30.4 µM (inactive),40.9 µM (inactive),59.6 µM (inactive),66.7 µM (inactive),22 µM (inactive),24.2 µM (inactive),45.1 µM (inactive),48.1 µM (inactive),49.1 µM (inactive),62.4 µM (inactive),30.2 µM (inactive),
O=C(O)CCC/N=C(\C(=N\CCCC(=O)O)c1ccccc1)c1ccccc1,> 100 µM (inactive),> 100 µM (inactive),> 100 µM (inactive),> 100 µM (inactive),> 100 µM (inactive),> 100 µM (inactive),> 100 µM (inactive),> 100 µM (inactive),> 100 µM (inactive),> 100 µM (inactive),> 100 µM (inactive),> 100 µM (inactive),> 100 µM (inactive),> 100 µM (inactive),> 100 µM (inactive),> 100 µM (inactive),> 100 µM (inactive),,> 100 µM (inactive)
S=C1CC(c2ccccc2)Sc2ccccc2N1 (stereo not given),76.6 µM (inactive),20.9 µM (inactive),28.4 µM (inactive),81.8 µM (inactive),5.22 µM (inactive),> 100 µM (inactive),> 100 µM (inactive),35.6 µM (inactive),54 µM (inactive),45.2 µM (inactive),45 µM (inactive),> 100 µM (inactive),38.8 µM (inactive),,37 µM (inactive),> 100 µM (inactive),87.1 µM (inactive),,> 100 µM (inactive)
COC(=O)C1OC(O[C@H]2CC[C@]3(C)[C@H]4CC=C5[C@@H]6CC(C)(C)CC[C@]6(C(=O)OC)[C@H](O)C[C@@]5(C)[C@]4(C)CC[C@H]3C2(C)C)C(O)C(O)C1O (stereo not given in full),13.1 µM (inactive),14.8 µM (inactive),5.22 µM (inactive),6.21 µM (inactive),3.61 µM (inactive),4.98 µM (inactive),12.6 µM (inactive),13.9 µM (inactive),12.2 µM (inactive),9.33 µM (inactive),5.22 µM (inactive),13.2 µM (inactive),13.2 µM (inactive),15.1 µM (inactive),4.4 µM (inactive),2.8 µM (inactive),10 µM (inactive),,3.18 µM (inactive)
